According to patent publication US20110183995A1, “ELTOPRAZINE FOR SUPPRESSION OF L-DOPA INDUCED DYSKINESIAS” (Neurosearch A/S, priority 2008, published 2011):

What was measured:
[1] = tested on: 6-OHDA-lesioned rats; test: Antidyskinetic effect of Eltoprazine in the rat 6-OHDA model (L-DOPA-induced dyskinesia, total AIM score); assay type: in vivo; conditions: for reduction of dyskinesia (total score: limb, axial and orolingual): compared to the control L-DOPA-only treated group, two-hour test
Protocol: In this experiment we determined the antidyskinetic properties of Eltoprazine.
6-OHDA-lesioned rats were made dyskinetic and allocated into three well-balanced groups (n=6 per group), which were challenge on the day of the experiments with L-DOPA-only, L-DOPA plus Eltoprazine 0.1 mg/kg or L-DOPA plus Eltoprazine 0.3 mg/kg, respectively.
Limb, axial and orolingual dyskinesias were scored over the tow-hour test and the sum is reported here as the total score, and the results are presented in FIG. 4.

[2] = tested on: PD patients; conditions: large phase III clinical trial, terminated; cited from earlier work

SMILES | reduction of dyskinesia (total score: limb, axial and orolingual) ([1]; Eltoprazine 0.1 mg/kg plus L-DOPA) | reduction of dyskinesia (total score: limb, axial and orolingual) ([1]; Eltoprazine 0.3 mg/kg plus L-DOPA) | suppression of L-DOPA-induced dyskinesia ([1]; rats, higher dose alone) | clinical antidyskinetic efficacy [2]
c1cc2c(c(N3CCNCC3)c1)OCCO2 [Eltoprazine, 1-(2,3-Dihydro-benzo[1,4]dioxin-5-yl)piperazine] | approximately 50% | near-complete abolishment | near-complete suppression | –
Fc1ccc(-c2cncc(CNC[C@H]3CCc4ccccc4O3)c2)cc1 [Sarizotan] | – | – | – | lack of efficacy
